Source: patent US7138361B2, “Herbicidal heterocycles” (E. I. du Pont de Nemours and Company, priority 2000, dated 2006)

Columns and labels:
Type in all cases: in vivo
[1] = system: velvetleaf (Abutilon theophrasti); test: Test B postemergence
Outline: (§1)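 Seeds were planted and sprayed preemergence with test chemical in a non-phytotoxic solvent mixture containing surfactant; postemergence plants (2 to 18 cm, 1- to 4-leaf stage) received the same formulation. Greenhouse hold 13 to 15 days, then visual rating versus untreated controls on a 0–100 scale (0 no effect, 100 complete control).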

[2] = system: corn (Zea mays); test: Test B postemergence
Outline: as §1

[3] = system: pigweed (Amaranthus retroflexus); test: Test B postemergence
Outline: as §1

[4] = system: crabgrass (Digitaria sanguinalis); test: Test B postemergence
Outline: as §1

[5] = system: giant foxtail (Setaria faberii); test: Test B postemergence
Outline: as §1

[6] = system: blackgrass (Alopecurus myosuroides); test: Test B postemergence
Outline: as §1

[7] = system: Surinam grass (Brachiaria decumbens); test: Test B postemergence
Outline: as §1

[8] = system: morning glory (Ipomoea hederacea); test: Test B postemergence
Outline: as §1

[9] = system: wild oat (Avena fatua); test: Test B postemergence
Outline: as §1

[10] = system: barnyardgrass (Echinochloa crus-galli); test: Test B postemergence
Outline: as §1

[11] = system: wheat (Triticum aestivum); test: Test B postemergence
Outline: as §1

[12] = system: lambsquarters (Chenopodium album); test: Test B postemergence
Outline: as §1

[13] = system: velvetleaf (Abutilon theophrasti); test: Test C preemergence
Excerpt: (§2) Seeds of plant species selected from bermudagrass (Cynodon dactylon), Surinam grass (Brachiaria decumbens), cocklebur (Xanthium strumarium), corn (Zea mays), crabgrass (Digitaria sanguinalis), woolly cupgrass (Eriochloa villosa), giant foxtail (Setaria faberii), goosegrass (Eleusine indica), johnsongrass (Sorghum halepense), kochia (Kochia scoparia), lambsquarters (Chenopodium album), morningglory (Ipomoea hederacea), yellow nutsedge (Cyperus esculentus), pigweed (Amaranthus retroflexus), common ragweed (Ambrosia elatior), soybean (Glycine max) and velvetleaf (Abutilon theophrasti) were planted and treated preemergence with test chemicals formulated in a non-phytotoxic solvent mixture which included a surfactant.
(§3) At the same time, plants selected from these crop and weed species and also winter barley (Hordeum vulgare), blackgrass (Alopecurus myosuroides), canary grass (Phalaris minor), chickweed (Stellaria media), downy brome (Bromus tectorum), green foxtail (Setaria viridis), Italian ryegrass (Lolium multiflorum), wheat (Triticum aestivum), wild oat (Avena fatua) and windgrass (Apera spica-venti) were treated with postemergence applications of some of the test chemicals formulated in the same manner. Plants ranged in height from 2 to 18 cm (1- to 4-leaf stage) for postemergence treatments. Plant species in the flooded paddy test consisted of rice (Oryza saliva), smallflower flatsedge (Cyperus difformis), duck salad (Heteranthera limosa) and barnyardgrass (Echinochloa crus-galli) grown to the 2-leaf stage for testing. Treated plants and controls were maintained in a greenhouse for 12 to 14 days, after which time all species were compared to controls and visually evaluated. Plant response ratings, summarized in Table C, are based on a scale of 0 to 100 where 0 is no effect and 100 is complete control. A dash (-) response means no test result.

[14] = system: corn (Zea mays); test: Test C preemergence
Excerpt: as §2, §3

[15] = system: yellow nutsedge (Cyperus esculentus); test: Test C preemergence
Excerpt: as §2, §3

[16] = system: Sunflower; test: Test C preemergence; conditions: Rate 125 g/ha; scale 0 to 100, 0 no effect, 100 complete control
Excerpt: as §2, §3

[17] = system: bermudagrass (Cynodon dactylon); test: Test C preemergence
Excerpt: as §2, §3

[18] = system: giant foxtail (Setaria faberii); test: Test C preemergence
Excerpt: as §2, §3

[19] = system: kochia (Kochia scoparia); test: Test C preemergence
Excerpt: as §2, §3

[20] = system: morningglory (Ipomoea hederacea); test: Test C preemergence
Excerpt: as §2, §3

[21] = system: johnsongrass (Sorghum halepense); test: Test C preemergence
Excerpt: as §2, §3

[22] = system: cocklebur (Xanthium strumarium); test: Test B postemergence
Outline: as §1

[23] = Rate 500 g/ha, scale 0 to 100, 0 is no effect, 100 is complete control, 13 to 15 days
[24] = Rate 125 g/ha, scale 0 (no effect) to 100 (complete control), 13 to 15 days
[25] = Rate 125 g/ha, scale 0 to 100, 0 no effect, 100 complete control
[26] = preemergence, Rate 31 g/ha, scale 0 to 100
[27] = preemergence, Rate 62 g/ha, scale 0 to 100
[28] = preemergence, Rate 250 g/ha, scale 0 to 100, 0 no effect, 100 complete control

CC(C)(C)c1ccn(C2CCN(c3cccc([S+]([O-])C(F)(F)F)c3)C2=O)n1 (centres unmarked) [Compound 101]
Plant response rating, Velvetleaf [1, 23]: 0
Plant response rating, Corn [2, 24]: 0
Plant response rating, Corn [2, 23]: 0
Plant response rating, Pigweed [3, 23]: 0
Plant response rating, Crabgrass [4, 24]: 0
Plant response rating, Crabgrass [4, 23]: 0
Plant response rating, Foxtail, Giant [5, 24]: 0
Plant response rating, Foxtail, Giant [5, 23]: 0
Plant response rating, Blackgrass [6, 24]: 0
Plant response rating, Blackgrass [6, 23]: 0
Plant response rating, Surinam grass [7, 24]: 0
Plant response rating, Surinam grass [7, 23]: 0
Plant response rating, Morningglory [8, 23]: 0
Plant response rating, Wild Oat [9, 23]: 0
Plant response rating, Barnyardgrass [10, 24]: 0
Plant response rating, Barnyardgrass [10, 23]: 0
Plant response rating, Wheat [11, 23]: 0
Plant response rating, Lambsquarters [12, 23]: 0
Plant response rating, Velvetleaf [13, 25]: 50
Plant response rating, Velvetleaf [13, 26]: 20
Plant response rating, Velvetleaf [13, 27]: 20
Plant response rating, Velvetleaf [13, 28]: 90
Plant response rating, Corn [14, 25]: 0
Plant response rating, Corn [14, 26]: 0
Plant response rating, Corn [14, 27]: 0
Plant response rating, Corn [14, 28]: 60
Plant response rating, Nutsedge [15, 25]: 0
Plant response rating, Nutsedge [15, 26]: 0
Plant response rating, Nutsedge [15, 27]: 0
Plant response rating, Nutsedge [15, 28]: 0
Plant response rating, Sunflower [16]: 0
Plant response rating, Bermudagrass [17, 25]: 100
Plant response rating, Bermudagrass [17, 26]: 40
Plant response rating, Bermudagrass [17, 27]: 40
Plant response rating, Bermudagrass [17, 28]: 100
Plant response rating, Foxtail, Giant [18, 25]: 40
Plant response rating, Foxtail, Giant [18, 26]: 0
Plant response rating, Foxtail, Giant [18, 27]: 40
Plant response rating, Foxtail, Giant [18, 28]: 100
Plant response rating, Kochia [19, 25]: 0
Plant response rating, Kochia [19, 26]: 0
Plant response rating, Kochia [19, 27]: 0
Plant response rating, Kochia [19, 28]: 0
Plant response rating, Morningglory [20, 25]: 0
Plant response rating, Morningglory [20, 26]: 0
Plant response rating, Morningglory [20, 27]: 0
Plant response rating, Morningglory [20, 28]: 100
Plant response rating, Johnsongrass [21, 25]: 40
Plant response rating, Johnsongrass [21, 26]: 0
Plant response rating, Johnsongrass [21, 27]: 10
Plant response rating, Johnsongrass [21, 28]: 90

CC(C)OC(=O)c1cccc(N2CCC(n3ccc(C(C)(C)C)n3)C2=O)c1 (centres unmarked) [Compound 124]
Plant response rating, Velvetleaf [1, 25]: 0
Plant response rating, Corn [2, 25]: 0
Plant response rating, Corn [2, 23]: 0
Plant response rating, Pigweed [3, 25]: 0
Plant response rating, Crabgrass [4, 25]: 0
Plant response rating, Foxtail, Giant [5, 25]: 0
Plant response rating, Blackgrass [6, 25]: 0
Plant response rating, Surinam grass [7, 25]: 0
Plant response rating, Surinam grass [7, 23]: 0
Plant response rating, Morningglory [8, 25]: 0
Plant response rating, Cocklebur [22, 25]: 20
Plant response rating, Cocklebur [22, 23]: 90
Plant response rating, Wild Oat [9, 25]: 0
Plant response rating, Barnyardgrass [10, 25]: 0
Plant response rating, Barnyardgrass [10, 23]: 0
Plant response rating, Wheat [11, 25]: 0
Plant response rating, Lambsquarters [12, 25]: 20
Plant response rating, Velvetleaf [13, 25]: 0
Plant response rating, Velvetleaf [13, 26]: 0
Plant response rating, Velvetleaf [13, 27]: 0
Plant response rating, Velvetleaf [13, 28]: 0
Plant response rating, Corn [14, 25]: 0
Plant response rating, Corn [14, 26]: 0
Plant response rating, Corn [14, 27]: 0
Plant response rating, Corn [14, 28]: 0
Plant response rating, Nutsedge [15, 25]: 0
Plant response rating, Nutsedge [15, 26]: 0
Plant response rating, Nutsedge [15, 27]: 0
Plant response rating, Nutsedge [15, 28]: 0
Plant response rating, Sunflower [16]: 0
Plant response rating, Bermudagrass [17, 25]: 80
Plant response rating, Bermudagrass [17, 26]: 0
Plant response rating, Bermudagrass [17, 27]: 60
Plant response rating, Bermudagrass [17, 28]: 100
Plant response rating, Foxtail, Giant [18, 25]: 20
Plant response rating, Foxtail, Giant [18, 26]: 0
Plant response rating, Foxtail, Giant [18, 27]: 0
Plant response rating, Foxtail, Giant [18, 28]: 85
Plant response rating, Kochia [19, 25]: 60
Plant response rating, Kochia [19, 26]: 0
Plant response rating, Kochia [19, 27]: 40
Plant response rating, Kochia [19, 28]: 90
Plant response rating, Morningglory [20, 25]: 0
Plant response rating, Morningglory [20, 26]: 0
Plant response rating, Morningglory [20, 27]: 0
Plant response rating, Morningglory [20, 28]: 0
Plant response rating, Johnsongrass [21, 25]: 20
Plant response rating, Johnsongrass [21, 26]: 0
Plant response rating, Johnsongrass [21, 27]: 15
Plant response rating, Johnsongrass [21, 28]: 30
